Measured values: patent publication US20230113037A1 (Bayer Aktiengesellschaft, priority 2019, published 2023)
Read-outs that look alike come from different tables or passages of the source.

Experiments:
AHR [1] = target: T1, AHR (Homo sapiens, UniProt P35869); assay: In vitro assay 1: antagonism in human cell line (AHR transactivation, firefly luciferase reporter, kynurenic acid prestimulated); assay type: cell-based; conditions: AHR Antagonism Human IC50 [M]
T1 construct: U87 MG glioblastoma cells (ATCC #HTB-14) endogenously expressing AHR; endogenous in cells; host or cells: U87 MG glioblastoma cells (ATCC #HTB-14)
T1 sequence (P35869 11-848): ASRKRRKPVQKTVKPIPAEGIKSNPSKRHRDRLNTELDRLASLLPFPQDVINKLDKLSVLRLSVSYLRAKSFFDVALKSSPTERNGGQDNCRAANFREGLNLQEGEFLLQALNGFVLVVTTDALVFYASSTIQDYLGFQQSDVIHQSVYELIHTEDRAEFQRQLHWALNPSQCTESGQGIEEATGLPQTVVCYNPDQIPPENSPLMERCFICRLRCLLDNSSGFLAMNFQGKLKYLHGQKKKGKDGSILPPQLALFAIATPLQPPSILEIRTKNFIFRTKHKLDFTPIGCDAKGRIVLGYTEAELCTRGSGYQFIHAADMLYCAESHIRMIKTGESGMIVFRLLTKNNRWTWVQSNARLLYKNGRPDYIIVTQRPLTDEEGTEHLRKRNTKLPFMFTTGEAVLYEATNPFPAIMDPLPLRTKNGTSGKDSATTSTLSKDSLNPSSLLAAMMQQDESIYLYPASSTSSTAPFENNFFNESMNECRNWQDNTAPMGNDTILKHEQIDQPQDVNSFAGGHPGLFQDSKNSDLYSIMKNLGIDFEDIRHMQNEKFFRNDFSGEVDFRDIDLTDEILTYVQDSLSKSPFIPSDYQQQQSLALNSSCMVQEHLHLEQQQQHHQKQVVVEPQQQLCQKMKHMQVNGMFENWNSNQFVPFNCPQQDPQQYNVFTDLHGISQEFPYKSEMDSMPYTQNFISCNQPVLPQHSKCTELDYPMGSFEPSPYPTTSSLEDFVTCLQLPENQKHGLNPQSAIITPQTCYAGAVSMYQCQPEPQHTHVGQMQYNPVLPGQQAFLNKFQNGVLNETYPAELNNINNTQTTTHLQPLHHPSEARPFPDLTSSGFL
Outline: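 Antagonism is measured against kynurenic acid prestimulation in U87 MG glioblastoma cells carrying stable DRE-luciferase and Renilla reporters. Positive inhibition control: 150 μM kynurenic acid with 5 μM staurosporine. Values are normalized to controls; repeats are averaged or given as medians.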

AHR [2] = target: T2, AHR (Mus musculus, UniProt P30561); assay: In vitro assay 3: antagonism in mouse cell line (AHR transactivation, firefly luciferase reporter, kynurenic acid prestimulated); assay type: cell-based
T2 sequence (P30561 1-848 P471L/N533S/M589L): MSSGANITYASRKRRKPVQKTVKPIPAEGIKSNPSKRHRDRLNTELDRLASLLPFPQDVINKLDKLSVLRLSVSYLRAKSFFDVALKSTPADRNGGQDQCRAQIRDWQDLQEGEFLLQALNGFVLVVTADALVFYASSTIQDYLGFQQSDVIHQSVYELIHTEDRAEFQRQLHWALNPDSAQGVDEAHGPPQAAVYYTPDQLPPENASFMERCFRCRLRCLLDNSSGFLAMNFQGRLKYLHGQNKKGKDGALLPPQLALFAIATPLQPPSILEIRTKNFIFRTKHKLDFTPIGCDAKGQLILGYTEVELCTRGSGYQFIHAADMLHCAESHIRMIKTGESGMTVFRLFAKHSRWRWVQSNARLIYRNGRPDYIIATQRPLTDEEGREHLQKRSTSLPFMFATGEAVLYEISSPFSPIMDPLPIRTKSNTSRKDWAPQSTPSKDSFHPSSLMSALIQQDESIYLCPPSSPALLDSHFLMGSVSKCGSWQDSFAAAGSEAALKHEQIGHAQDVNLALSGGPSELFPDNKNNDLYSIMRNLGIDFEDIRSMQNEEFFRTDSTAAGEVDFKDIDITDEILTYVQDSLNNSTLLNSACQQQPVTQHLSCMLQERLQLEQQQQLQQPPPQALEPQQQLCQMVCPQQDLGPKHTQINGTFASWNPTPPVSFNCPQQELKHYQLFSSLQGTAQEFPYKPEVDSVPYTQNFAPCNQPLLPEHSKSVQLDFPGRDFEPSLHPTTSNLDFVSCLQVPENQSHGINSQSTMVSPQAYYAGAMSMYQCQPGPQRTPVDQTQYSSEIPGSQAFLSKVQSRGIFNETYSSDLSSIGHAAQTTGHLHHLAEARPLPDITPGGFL
Outline: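 Antagonism read as reduced firefly luciferase signal (SteadyGlo) from a stably transfected AHR/DRE reporter in a mouse line prestimulated with kynurenic acid. Data normalized to controls, the full-inhibition control being cells without kynurenic acid; multiple determinations given as average or median values.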

[3] = mouse Hepa 1c1c7 cells, 200 μM kynurenic acid, 20 hours, read-out: AHR Antagonism Mouse IC50
[4] = read-out: AHR Antagonism Mouse IC50, mouse Hepa 1c1c7 cells, 200 μM kynurenic acid, 20 hours

Row | IC50 (AHR [1]) [M] | IC50 (AHR [2]; [3]) [nM] | SMILES | IC50 (AHR [2]; [4]) [nM]
1 | 1.64e-08 | 1.2 | CC[C@@H](Nc1nc2ccccc2c2nc(-c3ccccc3OC(F)(F)F)nn12)C(N)=O [Example 469, (2R)-2-({2-[2-(trifluoromethoxy)phenyl][1,2,4]triazolo[1,5-c]quinazolin-5-yl}amino)butanamide] | –
2 | 1.34e-09 | 0.5 | O=C1NCCCC[C@H]1Nc1nc2ccccc2c2nc(-c3ccccc3OC(F)F)nn12 [Example 470, (3R)-3-({2-[2-(difluoromethoxy)phenyl][1,2,4]triazolo[1,5-c]quinazolin-5-yl}amino)azepan-2-one] | –
3 | 5.6e-08 | 5.26 | O=C1NCCCC[C@@H]1Nc1nc2ccccc2c2nc(-c3ccccc3OC(F)F)nn12 [Example 471, (3S)-3-({2-[2-(difluoromethoxy)phenyl][1,2,4]triazolo[1,5-c]quinazolin-5-yl}amino)azepan-2-one] | –
4 | 3.72e-08 | 38.1 | O=C1NCCC[C@H]1Nc1nc2ccccc2c2nc(-c3ccccc3OC(F)F)nn12 [Example 472, (3R)-3-({2-[2-(difluoromethoxy)phenyl][1,2,4]triazolo[1,5-c]quinazolin-5-yl}amino)piperidin-2-one] | –
5 | 5.1e-08 | 17.9 | O=C1NCC[C@H]1Nc1nc2ccccc2c2nc(-c3ccccc3OC(F)F)nn12 [Example 473, (3R)-3-({2-[2-(difluoromethoxy)phenyl][1,2,4]triazolo[1,5-c]quinazolin-5-yl}amino)pyrrolidine-2-one] | –
6 | 3.11e-09 | 1.37 | O=C1NCCCCCC1Nc1nc2ccccc2c2nc(-c3ccccc3OC(F)F)nn12 (stereo not drawn) [Example 474, 3-({2-[2-(difluoromethoxy)phenyl][1,2,4]triazolo[1,5-c]quinazolin-5-yl}amino)azocan-2-one] | –
7 | 1.81e-08 | 1.44 | CCC[C@@H](Nc1nc2ccccc2c2nc(-c3ccccc3OC(F)F)nn12)C(=O)NC [Example 477, N^2-{2-[2-(difluoromethoxy)phenyl][1,2,4]triazolo[1,5-c]quinazolin-5-yl}-N-methyl-D-norvalinamide] | –
8 | 4.98e-08 | 2.99 | CSc1ccccc1-c1nc2c3ccccc3nc(N[C@@H]3CCCCNC3=O)n2n1 [Example 478, (3R)-3-({2-[2-(methylsulfanyl)phenyl][1,2,4]triazolo[1,5-c]quinazolin-5-yl}amino)azepan-2-one] | –
9 | 2.07e-08 | 14.8 | O=C1NCCCC[C@H]1Nc1nc2ccccc2c2nc(-c3cncc(Cl)c3)nn12 [Example 480, (3R)-3-{[2-(5-chloropyridin-3-yl)[1,2,4]triazolo[1,5-c]quinazolin-5-yl]amino}azepan-2-one] | –
10 | 1.02e-06 | 104 | O=C1NCCCC[C@@H]1Nc1nc2ccccc2c2nc(-c3ccncc3F)nn12 [Example 481, (3S)-3-{[2-(3-fluoropyridin-4-yl)[1,2,4]triazolo[1,5-c]quinazolin-5-yl]amino}azepan-2-one] | –
11 | 2.23e-06 | 3160 | O=C1NCCC[C@H]1Nc1nc2ccccc2c2nc(-c3ccncc3F)nn12 [Example 482, (3R)-3-{[2-(3-fluoropyridin-4-yl)[1,2,4]triazolo[1,5-c]quinazolin-5-yl]amino}piperidin-2-one] | –
12 | 1.45e-06 | 2170 | O=C1NCC[C@H]1Nc1nc2ccccc2c2nc(-c3ccncc3F)nn12 [Example 483, (3R)-3-{[2-(3-fluoropyridin-4-yl)[1,2,4]triazolo[1,5-c]quinazolin-5-yl]amino}pyrrolidin-2-one] | –
13 | 9.06e-08 | 27.6 | CC[C@@H](Nc1nc2ccccc2c2nc(-c3ccncc3F)nn12)C(N)=O [Example 484, (2R)-2-{[2-(3-fluoropyridin-4-yl)[1,2,4]triazolo[1,5-c]quinazolin-5-yl]amino}butanamide] | –
14 | 7.54e-07 | 10100 | CCCCNC(=O)CNc1nc2ccccc2c2nc(-c3ccncc3F)nn12 [Example 485, N-butyl-N^2-[2-(3-fluoropyridin-4-yl)[1,2,4]triazolo[1,5-c]quinazolin-5-yl]glycinamide] | –
15 | 3.34e-07 | 184 | CCC[C@@H](Nc1nc2ccccc2c2nc(-c3ccncc3F)nn12)C(=O)NC [Example 486, N^2-[2-(3-fluoropyridin-4-yl)[1,2,4]triazolo[1,5-c]quinazolin-5-yl]-N-methyl-D-norvalinamide] | –
16 | 3.26e-07 | 200 | CCCNC(=O)[C@@H](C)Nc1nc2ccccc2c2nc(-c3ccncc3F)nn12 [Example 487, N^2-[2-(3-fluoropyridin-4-yl)[1,2,4]triazolo[1,5-c]quinazolin-5-yl]-N-propyl-D-alaninamide] | –
17 | 6.4e-08 | 12.3 | O=C1NCCCC[C@H]1Nc1nc2ccccc2c2nc(-c3cccnc3C(F)(F)F)nn12 [Example 488, (3R)-3-({2-[2-(trifluoromethyl)pyridin-3-yl][1,2,4]triazolo[1,5-c]quinazolin-5-yl}amino)azepan-2-one] | –
18 | 4.24e-07 | 43.3 | CC[C@@H](Nc1nc2ccccc2c2nc(-c3cccnc3C(F)(F)F)nn12)C(N)=O [Example 489, (2R)-2-({2-[2-(trifluoromethyl)pyridin-3-yl][1,2,4]triazolo[1,5-c]quinazolin-5-yl}amino)butanamide] | –
19 | 4.25e-08 | 50.6 | O=C1NCCCC[C@H]1Nc1nc2ccccc2c2nc(-c3cnccc3C(F)(F)F)nn12 [Example 490, (3R)-3-({2-[4-(trifluoromethyl)pyridin-3-yl][1,2,4]triazolo[1,5-c]quinazolin-5-yl}amino)azepan-2-one] | –
20 | 9.72e-08 | 50.5 | CC[C@@H](Nc1nc2ccccc2c2nc(-c3cnccc3C(F)(F)F)nn12)C(N)=O [Example 491, (2R)-2-({2-[4-(trifluoromethyl)pyridin-3-yl][1,2,4]triazolo[1,5-c]quinazolin-5-yl}amino)butanamide] | –
21 | 2.22e-08 | 5.71 | O=C1NCCCC[C@H]1Nc1nc2ccccc2c2nc(-c3cc(F)ccc3OC(F)(F)F)nn12 [Example 492, (3R)-3-({2-[5-fluoro-2-(trifluoromethoxy)phenyl][1,2,4]triazolo[1,5-c]quinazolin-5-yl}amino)azepan-2-one] | –

Row | SMILES | IC50 (AHR [1]) [M] | IC50 (AHR [2]; [3]) [nM] | IC50 (AHR [2]; [4]) [nM]
22 | CC[C@H](Nc1nc2ccccc2c2nc(-c3ccccc3OC(F)F)nn12)C(N)=O [Example 475, (2S)-2-({2-[2-(difluoromethoxy)phenyl][1,2,4]triazolo[1,5-c]quinazolin-5-yl}amino)butanamaide] | > 2e-05 | – | 71.7
23 | CC[C@@H](Nc1nc2ccccc2c2nc(-c3ccccc3OC(F)F)nn12)C(N)=O [Example 476, (2R)-2-({2-[2-(difluoromethoxy)phenyl][1,2,4]triazolo[1,5-c]quinazolin-5-yl}amino)butanamide] | 3.93e-09 | – | 0.554
24 | O=C1NCCCC[C@H]1Nc1nc2ccccc2c2nc(-c3cncc(F)c3)nn12 [Example 479, (3R)-3-{[2-(5-fluoropyridin-3-yl)[1,2,4]triazolo[1,5-c]quinazolin-5-yl]amino}azepan-2-one] | 3.53e-08 | – | 33.2
